Some test systems named below: 786-0 renal; ACHN renal; CAKI-1 renal; CCRF-CEM leukemia; HCT-116 colon; NCI-H522 lung; RPMI-8226 leukemia; RXF 393 renal; SW-620 colon; U251 CNS.
Test in all cases: growth of human tumour cells (NCI), 48 h

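Results reflect a 48-hour exposure of cells in 96-well plates to compound at five concentrations. GI50 marks 50% less growth. TGI: total growth inhibition.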

`O=C1/C(=C/c2ccc(O)cc2)COc2ccc(-c3ccccc3)cc21`: the GI50 in the experiment on 786-0 renal is 12 µM; with ACHN renal it was 12.3 µM; with CAKI-1 renal it was 6.9 µM; in the experiment on CCRF-CEM leukemia, 0.237 µM; with HCT-116 colon it was 3.38 µM; with NCI-H522 lung, 2.93 µM. Moreover, the GI50 in the experiment with RPMI-8226 leukemia is 1.4 µM; with RXF 393 renal it was 3.35 µM; with SW-620 colon, 2.8 µM; in the experiment on U251 CNS it was 5.1 µM. In addition, the TGI turned out to be 32.3 µM in the experiment on 786-0 renal; 25.1 µM with ACHN renal; 20.2 µM in the experiment with CAKI-1 renal; 14.4 µM in the experiment on HCT-116 colon; 16.4 µM in the experiment with NCI-H522 lung; 7.68 µM with RPMI-8226 leukemia. Also, the TGI with RXF 393 renal amounted to 8.25 µM; in the experiment with SW-620 colon, 8.06 µM; with U251 CNS, 17.8 µM.

With `CN(C)CCOc1ccc2c(c1)C/C(=C/c1ncc([N+](=O)[O-])n1C)C2=O`, the TGI in the experiment with 786-0 renal was 26.4 µM; in the experiment on ACHN renal it was 4.71 µM; in the experiment with CAKI-1 renal, 7.81 µM; in the experiment on CCRF-CEM leukemia, 15.1 µM; in the experiment on HCT-116 colon it was over 19.6 µM; in the experiment on NCI-H522 lung it was 3.02 µM. Moreover, the TGI with RPMI-8226 leukemia is 4.46 µM; with RXF 393 renal, 3.69 µM; with SW-620 colon, 18.2 µM; with U251 CNS it was 20.5 µM.

With `CC1OC2CC(=O)OC2C2=C1C(=O)c1c(O)c3c(c(O)c1C2=O)C1CC(O)C3(O)C(C)O1` (centres undefined), the GI50 in the experiment with 786-0 renal was 0.635 µM; with ACHN renal, 0.555 µM; with CAKI-1 renal it was 0.224 µM; in the experiment on CCRF-CEM leukemia it was 0.26 µM; in the experiment with HCT-116 colon, 0.0452 µM; in the experiment with NCI-H522 lung, 0.195 µM. The GI50 in the experiment with RPMI-8226 leukemia is 0.267 µM; in the experiment with RXF 393 renal, 1.2 µM; in the experiment on SW-620 colon it was 0.168 µM; in the experiment with U251 CNS it was 0.296 µM. For the same compound, the TGI stood at 1.78 µM in the experiment on 786-0 renal; 10.4 µM in the experiment on ACHN renal; 0.613 µM in the experiment on CAKI-1 renal; 13.6 µM in the experiment with CCRF-CEM leukemia; 0.252 µM with HCT-116 colon; 0.447 µM in the experiment with NCI-H522 lung. Moreover, the TGI with RPMI-8226 leukemia was found to be 0.876 µM; in the experiment on RXF 393 renal, 2.51 µM; in the experiment with SW-620 colon it was 0.774 µM; in the experiment on U251 CNS it was 1.07 µM.

For `COc1ccc2c3c(c(=O)n(C)c2c1OC)C=CC(C)(C)O3`, the TGI with 786-0 renal is over 100 µM; in the experiment on ACHN renal it was 27.5 µM; in the experiment with CAKI-1 renal, 38.4 µM; in the experiment with CCRF-CEM leukemia it was 88.3 µM; with HCT-116 colon, over 100 µM; with NCI-H522 lung it was over 100 µM. Besides, the TGI in the experiment with RPMI-8226 leukemia is 29.3 µM; in the experiment with RXF 393 renal it was over 100 µM; with SW-620 colon it was over 100 µM; with U251 CNS, over 100 µM.

On to `CC(=O)[O-].CC(=O)[O-].[NH2-].[Pt+2].c1ccc2cnccc2c1`, for which the GI50 is 37.9 µM in the experiment on 786-0 renal; 2.26 µM in the experiment with ACHN renal; 55.1 µM in the experiment on CAKI-1 renal; 14.1 µM in the experiment on CCRF-CEM leukemia; 15.1 µM in the experiment with HCT-116 colon; 12.4 µM in the experiment on NCI-H522 lung. For the same compound, the GI50 in the experiment on RPMI-8226 leukemia was 27.7 µM; in the experiment on RXF 393 renal, 0.0522 µM; in the experiment with SW-620 colon, 16.2 µM; with U251 CNS, 6.26 µM. The TGI in the experiment with 786-0 renal was over 100 µM; with ACHN renal it was 13.4 µM; in the experiment on CAKI-1 renal it was over 100 µM; with CCRF-CEM leukemia, over 100 µM; with HCT-116 colon, 33.7 µM; in the experiment on NCI-H522 lung, 24.9 µM. The TGI in the experiment on RPMI-8226 leukemia was over 100 µM; in the experiment on RXF 393 renal, 24 µM; with SW-620 colon, 38.3 µM; in the experiment with U251 CNS it was 20.3 µM.

On to `COc1ccc(NC(=O)c2cc(OC)c(OC)c(OC)c2)cc1`, for which the TGI was over 100 µM in the experiment on 786-0 renal; over 100 µM with ACHN renal; over 100 µM in the experiment on CAKI-1 renal; over 100 µM with CCRF-CEM leukemia; over 100 µM in the experiment on HCT-116 colon; over 87.4 µM with NCI-H522 lung. Further, the TGI in the experiment with RPMI-8226 leukemia was over 100 µM; in the experiment with RXF 393 renal, 94.3 µM; in the experiment on SW-620 colon, over 100 µM; in the experiment with U251 CNS, over 100 µM.
